Several values for one entry are separate records, joined by “and”; a condition that tells them apart may be missing. Identical values can stand only once. Toxic doses and inconclusive results are not listed. No stated cut-off is given here; in the data, active means T/C of 150% or more; inactive means T/C below 125%.
Tested on: L1210 leukemia ip in BDF1 mice, survival T/C
Assay: NCI In Vivo Anticancer Drug Screen. Data for tumor model L1210 Leukemia (intraperitoneal) in B6D2F1 (BDF1) mice
Settings: endpoint: mean survival time, higher = longer survival
Outline: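 Transplantable tumor model; survival measured in treated vs vehicle control mice. Value = treated/control.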

[1] = dose: 100.0 mg/kg/injection, schedule: Q01DX001 (ip), vehicle: saline
[2] = dose: 100.0 mg/kg/injection, schedule: Q04DX002 (ip), vehicle: Klucel (hydroxypropylcellulose) (HPC)
[3] = dose: 200.0 mg/kg/injection, schedule: Q04DX002 (ip), vehicle: Klucel (hydroxypropylcellulose) (HPC)
[4] = dose: 400.0 mg/kg/injection, schedule: Q04DX002 (ip), vehicle: Klucel (hydroxypropylcellulose) (HPC)
[5] = dose: 100.0 mg/kg/injection, schedule: Q04DX003 (ip), vehicle: Klucel (hydroxypropylcellulose) (HPC)
[6] = dose: 200.0 mg/kg/injection, schedule: Q04DX003 (ip), vehicle: Klucel (hydroxypropylcellulose) (HPC)
[7] = dose: 100.0 mg/kg/injection, schedule: Q01DX001 (ip), vehicle: carboxymethylcellulose (CMC)
[8] = dose: 200.0 mg/kg/injection, schedule: Q01DX001 (ip), vehicle: carboxymethylcellulose (CMC)
[9] = dose: 400.0 mg/kg/injection, schedule: Q01DX001 (ip), vehicle: carboxymethylcellulose (CMC)

Measured: T/C

BrC1CC2OC2C2OC12 (stereo not drawn)
inactive: dose: 25.0 mg/kg/injection, schedule: Q04DX002 (ip), vehicle: saline 108 % of control | dose: 50.0 mg/kg/injection, schedule: Q04DX002 (ip), vehicle: saline 105 % of control | [1] 100 % of control | dose: 100.0 mg/kg/injection, schedule: Q04DX002 (ip), vehicle: saline 102 % of control

C[n+]1c2c(cc3ccccc31)CCC2
inactive: dose: 12.5 mg/kg/injection, schedule: Q01DX009 (ip), vehicle: saline with Tween-80 87 % of control | dose: 25.0 mg/kg/injection, schedule: Q01DX009 (ip), vehicle: saline with Tween-80 97 % of control | dose: 50.0 mg/kg/injection, schedule: Q01DX009 (ip), vehicle: saline with Tween-80 108 % of control and 90 % of control

CN(C)c1ccc(/C=C/C=N/Nc2nnc(N/N=C/C=C/c3ccc(N(C)C)cc3)c3ccccc23)cc1
inactive: dose: 50.0 mg/kg/injection, schedule: Q01DX001 (ip), vehicle: other 109 % of control | dose: 100.0 mg/kg/injection, schedule: Q01DX001 (ip), vehicle: other 100 % of control | dose: 200.0 mg/kg/injection, schedule: Q01DX001 (ip), vehicle: other 103 % of control | dose: 400.0 mg/kg/injection, schedule: Q01DX001 (ip), vehicle: other 100 % of control

CC1CC(C)(C)NC(C2CCC=CO2)N1 (stereo not drawn)
inactive: dose: 44.0 mg/kg/injection, schedule: Q01DX Z (ip), vehicle: saline 115 % of control | dose: 100.0 mg/kg/injection, schedule: Q01DX Z (ip), vehicle: saline 107 % of control

CC1NC(=O)NC(=O)C1CCSCCC1C(=O)NC(=O)NC1C (stereo not drawn)
inactive: [1] 96 % of control | dose: 200.0 mg/kg/injection, schedule: Q01DX001 (ip), vehicle: saline 109 % of control | dose: 400.0 mg/kg/injection, schedule: Q01DX001 (ip), vehicle: saline 104 % of control

COc1ccc(N2CCNCC2)cc1
inactive: dose: 5.0 mg/kg/injection, schedule: Q01DX001 (ip), vehicle: saline 103 % of control | dose: 10.0 mg/kg/injection, schedule: Q01DX001 (ip), vehicle: saline 103 % of control | dose: 20.0 mg/kg/injection, schedule: Q01DX001 (ip), vehicle: saline 97 % of control | dose: 40.0 mg/kg/injection, schedule: Q01DX001 (ip), vehicle: saline 105 % of control

CC(C)(C)NC(=O)NCC1CCCC1NC(=O)NC(C)(C)C (stereo not drawn)
inactive: [2] 92 % of control | [3] 99 % of control | [4] 92 % of control

COC(=O)[C@@H]1[C@H](O)[C@H](C)[C@H](O)[C@H](C)/C=C\C=C(C)C(=O)Nc2c(C)c(OC(C)=O)c3c(c2O)C(=O)C(C)=C2OCOC(=C23)C(C)=C[C@@](C)(O)[C@H](O)[C@@H](C)[C@H]1OC(C)=O
inactive: [2] 96 % of control | [3] 101 % of control | [4] 101 % of control

CCOP1(=S)OCCO1
inactive: [5] 100 % of control | [6] 103 % of control

S=c1sc2ccccc2n1CN1CCCCC1
inactive: dose: 100.0 mg/kg/injection, schedule: Q01DX009 (ip), vehicle: Klucel (hydroxypropylcellulose) (HPC) 95 % of control | [5] 92 % of control | dose: 200.0 mg/kg/injection, schedule: Q01DX009 (ip), vehicle: Klucel (hydroxypropylcellulose) (HPC) 103 % of control | [6] 97 % of control | dose: 400.0 mg/kg/injection, schedule: Q01DX009 (ip), vehicle: Klucel (hydroxypropylcellulose) (HPC) 105 % of control | dose: 400.0 mg/kg/injection, schedule: Q04DX003 (ip), vehicle: Klucel (hydroxypropylcellulose) (HPC) 96 % of control

Cc1ccc(/C(=N\N=C(N)N)C2CC2)cc1
inactive: dose: 15.0 mg/kg/injection, schedule: Q01DX Z (ip), vehicle: methylcellulose (MC) 102 % of control | dose: 30.0 mg/kg/injection, schedule: Q01DX Z (ip), vehicle: methylcellulose (MC) 113 % of control | dose: 60.0 mg/kg/injection, schedule: Q01DX Z (ip), vehicle: methylcellulose (MC) 112 % of control | dose: 120.0 mg/kg/injection, schedule: Q01DX Z (ip), vehicle: methylcellulose (MC) 97 % of control | dose: 120.0 mg/kg/injection, schedule: Q01DX Z (oral), vehicle: methylcellulose (MC) 96 % of control | dose: 240.0 mg/kg/injection, schedule: Q01DX Z (ip), vehicle: methylcellulose (MC) 99 % of control | dose: 240.0 mg/kg/injection, schedule: Q01DX Z (oral), vehicle: methylcellulose (MC) 98 % of control | dose: 480.0 mg/kg/injection, schedule: Q01DX Z (oral), vehicle: methylcellulose (MC) 90 % of control

CC(=O)Oc1ccc(OC(C)=O)c2cc3ccccc3cc12
inactive: [7] 87 % of control | [8] 93 % of control | [9] 91 % of control

COc1ccc(OC)c2c1C=CCC2
inactive: [7] 96 % of control | [8] 91 % of control | [9] 104 % of control
